Tested on: NL4-3 strain of HIV-1
Assay: HIV-1 replication assay: cyto-protection of MT4 cells infected with NL4-3 virus, CellTiter-Glo viability readout
Format: cell-based
Settings: Human immunodeficiency virus 1, NL43, 120 h; concentration leading to 50% of cyto-protection; MT4 cells infected with NL4-3 virus; 5 days incubation; CellTiter-Glo; read-out: EC50
Description: The antiviral activity, particularly against HIV, of compounds according to the invention is evaluated by the protocol described below.
Preparation of Virus stock of the NL4-3 strain of HIV-1 (Adachi et al, J Virol, 1986, 59(2):284-91).
The virus was prepared as described in Lopez et al (Lopez et al, Proc Natl Acad Sci USA., 2006, 103(40):14947-52, by transfecting 2×10^6 293 T cells (CRL-1573, ATCC) with following modifications: 6 μg of NL4-3 proviral DNA molecular clone were mixed with X-tremeGENE 9 DNA transfection reagent from Roche, and used according to manufacturer's instructions. Twenty four hours later, cells were washed and fresh medium added. Forty eight hours after transfection, cell supernatants were harvested, filtered through 0.45-μm-pore-size filters, quantified for HIV-1 p24 antigen by using an Innotest HIV antigen mAb assay (Ingen) according to manufacturer's instructions, and used in infection experiments.
Serial dilutions of compounds to be tested were prepared in complete RPMI medium from 10 mM DMSO stock solutions, and distributed in a volume of 20 μl in 96 well tissue-culture treated plates (Costar 3917), in order to get 0.5% DMSO final concentration in each well, after the addition of infected cells. Control wells contained also 0.5% DMSO final concentration but no compound.
MT4 cells (from the NIH AIDS Research and Reference Reagent Program) in RPMI complete medium were counted (10×10^6 cells per well in Falcon 353047 Multiwell™ 24 well) and infected for 2 hours at 37°, at a multiplicity of infection (moi) of 0.0001-0.00001. Cells were then centrifuged for 3 min at 3000 rpm, and washed two times in 1 ml PBS to remove viruses that have not entered the cells. Infected cells were resuspended in complete RPMI at 1.25×10^6 cells/ml, and 80 μl of infected cells were distributed in each well containing compounds to be tested or control wells. The plates were then incubated at 37° C. for 5 days.
Assay used to measure the inhibition of HIV replication by the compounds (according to Gregg S. Jones et al., Antimicrobial Agents and Chemotherapy, 2009, 53 (3): 1194-1203).
After 5 days of incubation, microplates were equilibrated to room temperature for 30 min and then 50 μl of CellTiter-Glo reagent (Promega Biosciences, Inc., Madison Wis., USA) were added to each well. Cell lysis was carried out at room temperature during 10 min and luminescence was read on a Fluoroskan (Thermo Scientific).
The EC50, or effective concentration 50, is the concentration of compound leading to 50% of cyto-protection in a CellTiter-Glo® viability assay based on MT4 cells infected with NL4-3 virus (table 1).

Compound | EC50 [nM]
Cc1ccc(C2CC2)c(-c2ccc3c(c2)CCCO3)c1C(OC1CC1)C(=O)O (stereo not drawn) [Example 23, 2-[3-cyclopropyl-2-(3,4-dihydro-2H-1-benzopyran-6-yl)-6-methylphenyl]-2-cyclopropoxyacetic acid] | 100
Cc1ccc(C2CC2)c(-c2ccc3c(c2)CCCO3)c1[C@H](OC1CC1)C(=O)O [Example 24, (S)-2-[3-cyclopropyl-2-(3,4-dihydro-2H-1-benzopyran-6-yl)-6-methylphenyl]-2-cyclopropoxyacetic acid] | 42
Cc1ccc(C2(C)CC2)c(-c2ccc3c(c2)CCCO3)c1C(OC(C)(C)C)C(=O)O (stereo not drawn) [Example 25, tert-butoxy-[2-chroman-6-yl-6-methyl-3-(1-methyl-cyclopropyl)-phenyl]-acetic acid] | 200
O=C(O)C(OC1CC1)c1c(C(F)(F)F)ccc(C2CC2)c1-c1ccc2c(c1)CCCO2 (stereo not drawn) [Example 27, (2-chroman-6-yl-3-cyclopropyl-6-trifluoromethyl-phenyl)-cyclopropoxy-acetic acid] | 280
CCCOC(C(=O)O)c1c(C)ccc(C2CC2)c1-c1ccc2c(c1)CCCO2 (stereo not drawn) [Example 28, (2-chroman-6-yl-3-cyclopropyl-6-methyl-phenyl)-propoxy-acetic acid] | 500
Cc1ccc(C2CC2)c(-c2ccc3c(c2)CCCO3)c1C(OCC1CC1)C(=O)O (stereo not drawn) [Example 29, (2-chroman-6-yl-3-cyclopropyl-6-methyl-phenyl)-cyclopropyl methoxy-acetic acid] | 500
Cc1ccc(C2CC2)c(-c2ccc3c(c2)CCCO3)c1C(OCC(F)(F)F)C(=O)O (stereo not drawn) [Example 30, (2-chroman-6-yl-3-cyclopropyl-6-methyl-phenyl)-(2,2,2-trifluoro-ethoxy)-acetic acid] | 860
CCCc1ccc(C)c(C(OC(C)C)C(=O)O)c1-c1ccc2c(c1)CCCO2 (stereo not drawn) [Example 31] | 1000
Cc1ccc(C2CC2)c(-c2ccc3c(c2C)CCCO3)c1C(OC1CC1)C(=O)O (stereo not drawn) [Example 32, cyclopropoxy-[3-cyclopropyl-6-methyl-2-(5-methyl-chroman-6-yl)-phenyl]-acetic acid] | 32
Cc1ccc(C2CC2)c(-c2ccc3c(c2)CCCO3)c1C(OC1CCC1)C(=O)O (stereo not drawn) [Example 33, (2-chroman-6-yl-3-cyclopropyl-6-methyl-phenyl)-cyclobutoxy-acetic acid] | 450
Cc1ccc(C2CC2)c(-c2ccc3c(c2)CCCO3)c1C(OCC(F)F)C(=O)O (stereo not drawn) [Example 34, (2-chroman-6-yl-3-cyclopropyl-6-methyl-phenyl)-(2,2-difluoro-ethoxy)-acetic acid] | 440
Cc1ccc(C2CC2)c(-c2ccc3c(c2)CCCO3)c1C(OCCF)C(=O)O (stereo not drawn) [Example 35, (2-chroman-6-yl-3-cyclopropyl-6-methyl-phenyl)-(2-fluoro-ethoxy)-acetic acid] | 830
Cc1ccc(C2CC2)c(-c2ccc3c(c2)CCCO3)c1C(OC(C)C)C(=O)O (stereo not drawn) [Example 36, (2-chroman-6-yl-3-cyclopropyl-6-methyl-phenyl)-isopropoxy-acetic acid] | 100
Cc1ccc(C2CC2)c(-c2cc(F)c3c(c2C)CCCO3)c1C(OC1CC1)C(=O)O (stereo not drawn) [Example 37, cyclopropoxy-[3-cyclopropyl-2-(8-fluoro-5-methyl-chroman-6-yl)-6-methyl-phenyl]-acetic acid] | 24
Cc1ccc(C2CC2)c(-c2ccc3c(c2)CCCO3)c1C(OC1(C)CC1)C(=O)O (stereo not drawn) [Example 39, (2-chroman-6-yl-3-cyclopropyl-6-methyl-phenyl)-(1-methyl-cyclopropoxy)-acetic acid] | 24
CC(C)(C)OC(C(=O)O)c1c(-c2ccc3c(c2)CCCO3)c(C2CC2)cc2ncccc12 (stereo not drawn) [Example 42, tert-butoxy-(6-chroman-6-yl-7-cyclopropyl-quinolin-5-yl)-acetic acid] | 190
Cc1ccc(C2CCC2)c(-c2ccc3c(c2)CCCO3)c1C(OC(C)(C)C)C(=O)O (stereo not drawn) [Example 43, tert-butoxy-(2-chroman-6-yl-3-cyclobutyl-6-methyl-phenyl)-acetic acid] | 94
Cc1ccc(C2CC2)c(-c2ccc3c(c2)CCCO3)c1C(CC1CC1)C(=O)O (stereo not drawn) [Example 45, 3-cyclopropyl-2-[3-cyclopropyl-2-(3,4-dihydro-2H-1-benzopyran-6-yl)-6-methylphenyl]propanoic acid] | 290
Cc1ccc(C2CC2)c(-c2ccc3c(c2)CCCO3)c1C(CC(C)C)C(=O)O (stereo not drawn) [Example 46, 2-[3-cyclopropyl-2-(3,4-dihydro-2H-1-benzopyran-6-yl)-6-methylphenyl]-4-methylpentanoic acid] | 650
Cc1ccc(C2CC2)c(-c2ccc3c(c2)CCCO3)c1C(OC1CC1(F)F)C(=O)O (stereo not drawn) [Example 47, (2-chroman-6-yl-3-cyclopropyl-6-methyl-phenyl)-(2,2-difluoro-cyclopropoxy)-acetic acid] | 450
COc1cc(C)c(C(OC2CC2)C(=O)O)c(-c2ccc3c(c2)CCCO3)c1C1CC1 (stereo not drawn) [Example 56, (2-chroman-6-yl-3-cyclopropyl-4-methoxy-6-methyl-phenyl)-cyclopropoxy-acetic acid] | 500
CCc1cc(C2CC2)c(-c2ccc3c(c2)CCCO3)c(C(OC2CC2)C(=O)O)c1C (stereo not drawn) [Example 57, 2-(2-chroman-6-yl-3-cyclopropyl-5-ethyl-6-methyl-phenyl)-2-(cyclopropoxy)acetic acid] | 580
Cc1ccc(C)c(C(OC(C)(C)C)C(=O)O)c1-c1ccc2c(c1)CCCO2 (stereo not drawn) [Example 62, 2-(tert-butoxy)-2-[2-(3,4-dihydro-2H-1-benzopyran-6-yl)-3,6-dimethylphenyl]acetic acid, reference compound] | 1600
CC(C)(C)OC(C(=O)O)c1c(C(F)(F)F)ccc(OCc2ccccc2)c1-c1ccc2c(c1)CCCO2 (stereo not drawn) [Example 63, 2-[3-(benzyloxy)-2-(3,4-dihydro-2H-1-benzopyran-6-yl)-6-(trifluoromethyl)phenyl]-2-(tert-butoxy)acetic acid, reference compound] | 3200
